This is an account of results in patent publication US8778966B2, “Quinolinone derivatives as PARP and tank inhibitors” (Janssen Pharmaceutica, NV, priority 2007, dated 2014).

The test system of the first assay is HCT116 cells. Description: Mitotic arrest assay on HCT116 cells (phospho-histone H3 Ser10). The format is cell-based, human. Conditions: HCT116 cells; lowest active dose; the values are: pLAD (−log M lowest active dose). In outline: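 Read-out is imaging of phospho-histone H3 Ser10 (Alexa Fluor 488) with Hoechst nuclear counting, after 6 h compound exposure at 37 °C, DMSO ≤0.1%. LAD is the lowest dose at which the blank-corrected value over SD exceeds 5; triplicates, low-count wells excluded.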
Take `CCc1cc2ccc(C(C)(C#N)CC3COc4ccccc4O3)cc2[nH]c1=O` (single isomer, unassigned) [Compound 47]: the Mitotic arrest HCT116 LAD stood at 5.5.
The compound `CCc1cc2ccc(C(C)(C#N)Cc3cc(Cl)cc4c3OCOC4)cc2[nH]c1=O` (centres unmarked) [Compound 92] showed a Mitotic arrest HCT116 LAD of 6.5.

The assay is the same for the next values; noted with them: Homo sapiens, HCT-116, HCT116 cells; lowest active dose; read-out: Mitotic arrest HCT116 LAD (converted).
For the compound `CCc1cc2ccc([C@](C)(C#N)Cc3ccccc3)cc2[nH]c1=O` (single isomer, unassigned) [Compound 45], the minimal effective concentration was over 10 µM.
Consider `CCc1cc2ccc([C@@](C)(C#N)Cc3ccccc3)cc2[nH]c1=O` (single isomer, unassigned) [Compound 46], for which the minimal effective concentration was 0.316 µM.
The same measure, in the same setting: the value for `CCc1cc2ccc([C@](C)(C#N)Cc3nc(OC)cc(OC)n3)cc2[nH]c1=O` (single isomer, unassigned) [Compound 52] was 3 µM.
Consider `CCc1cc2ccc([C@@](C)(C#N)Cc3nc(OC)cc(OC)n3)cc2[nH]c1=O` (single isomer, unassigned) [Compound 53], for which the minimal effective concentration was 0.02 µM.
The same measure, in the same setting: the same measure for `CCc1cc2ccc(C(C)(C#N)Cc3cccc(C#C[Si](C)(C)C)c3)cc2[nH]c1=O` (centres unmarked) [Compound 1]: 1 µM.
As for `CCc1cc2ccc(C(C)(C#N)Cc3cccc(CN(C)C)c3)cc2[nH]c1=O` (centres unmarked) [Compound 7], the minimal effective concentration was 3.16 µM.
On to `CCc1cc2ccc(C(C)(C#N)Cc3cccc(COC)c3)cc2[nH]c1=O` (centres unmarked) [Compound 8], for which the minimal effective concentration was 0.1 µM.
With `CCc1cc2ccc(C(C)(C#N)Cc3cccc(CO)c3)cc2[nH]c1=O` (centres unmarked) [Compound 9], the minimal effective concentration is 0.316 µM.
As for `CCc1cc2ccc(C(C#N)(Cc3ccccc3)CC3CC3)cc2[nH]c1=O` (centres unmarked) [Compound 28], the minimal effective concentration was 3.16 µM.
For `CC(C#N)(Cc1ccccc1)c1ccc2cc(CO)c(=O)[nH]c2c1` (centres unmarked) [Compound 40], the minimal effective concentration was 3.16 µM.
On the same count and under the same terms, the same measure for `CCc1cc2ccc(C(C)(C#N)Cc3c(F)ccc(C)c3F)cc2[nH]c1=O` (centres unmarked) [Compound 41]: 0.316 µM; for `CCc1cc2ccc(C(C)(C#N)Cc3nnsc3Cl)cc2[nH]c1=O` (centres unmarked) [Compound 42]: 0.1 µM.
Regarding `CCc1cc2ccc(C(C)(C#N)Cc3nc(OC)cc(OC)n3)cc2[nH]c1=O` (centres unmarked) [Compound 43], the minimal effective concentration was 0.0316 µM.
Same read-out and setting: the same measure for `CCc1cc2ccc(C(C)(C#N)Cc3ccccc3)cc2[nH]c1=O` (centres unmarked) [Compound 44]: 0.316 µM; for `CCc1cc2ccc(C(C)(C#N)Cc3cccc(Br)c3)cc2[nH]c1=O` (centres unmarked) [Compound 49]: 0.1 µM.
Still for that read-out and setting: the value for `CCOP(=O)(OCC)c1cccc(CC(C)(C#N)c2ccc3cc(CC)c(=O)[nH]c3c2)c1` (centres unmarked) [Compound 50] was 0.316 µM; that for `CCc1cc2ccc(C(C)(C#N)Cc3cccc(C#N)c3)cc2[nH]c1=O` (centres unmarked) [Compound 51] was 0.1 µM; that for `CCc1cc2ccc(C(C)(C#N)CCOc3ccc([N+](=O)[O-])cc3)cc2[nH]c1=O` (centres unmarked) [Compound 54] was 0.1 µM.
The same measure, in the same setting: the same measure for `CCc1cc2ccc(C(C)(C#N)Cc3cccc(CN4CCN(C)CC4)c3)cc2[nH]c1=O` (centres unmarked) [Compound 57]: over 10 µM; for `CCc1cc2ccc(C(C)(C#N)Cc3cccc(CN4CCOCC4)c3)cc2[nH]c1=O` (centres unmarked) [Compound 58]: 3.16 µM.
Regarding `CCc1cc2ccc(C(C)(C#N)Cc3cccc(CNC)c3)cc2[nH]c1=O` (centres unmarked) [Compound 59], the minimal effective concentration is 10 µM.
`CCc1cc2ccc(C(C)(C#N)Cc3cccc(CNCCOC)c3)cc2[nH]c1=O` (centres unmarked) [Compound 60]: the minimal effective concentration is 1 µM.
On the same count and under the same terms, the value for `CCc1cc2ccc(C(C)(C#N)Cc3cccc(CNCCN4CCOCC4)c3)cc2[nH]c1=O` (centres unmarked) [Compound 61] was 10 µM.
The same measure, in the same setting: the same measure for `CCc1cc2ccc(C(C)(C#N)Cc3cccc(C(=O)NCCOC)c3)cc2[nH]c1=O` (centres unmarked) [Compound 62]: 1 µM; for `CCc1cc2ccc(C(C)(C#N)Cc3cccc(C(=O)N(C)C)c3)cc2[nH]c1=O` (centres unmarked) [Compound 63]: 0.316 µM; for `CCc1cc2ccc(C(C)(C#N)Cc3cccc(N4CCNCC4)c3)cc2[nH]c1=O` (centres unmarked) [Compound 64]: 3.16 µM.
Consider `CCc1cc2ccc(C(C)(C#N)Cc3cccc(N4CCCCC4)c3)cc2[nH]c1=O` (centres unmarked) [Compound 65], for which the minimal effective concentration is 1 µM.
The same measure, in the same setting: the value for `CCc1cc2ccc(C(C)(C#N)Cc3cccc(N4CCN(C)CC4)c3)cc2[nH]c1=O` (centres unmarked) [Compound 66] was 3.16 µM.
The same measure, in the same setting: the same measure for `CCc1cc2ccc(C(C)(C#N)Cc3cccc(OCC4CC4)c3)cc2[nH]c1=O` (centres unmarked) [Compound 67]: 0.316 µM; for `CCc1cc2ccc(C(C)(C#N)Cc3cccc(OCCCN4CCOCC4)c3)cc2[nH]c1=O` (centres unmarked) [Compound 68]: 10 µM.
For the compound `CCc1cc2ccc(C(C)(C#N)Cc3cccc(OCCCN4CCN(C)CC4)c3)cc2[nH]c1=O` (centres unmarked) [Compound 69], the minimal effective concentration was 10 µM.
Still for that read-out and setting: the value for `Cc1cc2ccc(C(C)(C#N)Cc3noc(-c4cccc(C(F)(F)F)c4)n3)cc2[nH]c1=O` (centres unmarked) [Compound 70] was 1 µM; that for `Cc1cc2ccc(C(C)(C#N)Cc3cc4ccccc4s3)cc2[nH]c1=O` (centres unmarked) [Compound 71] was 0.316 µM.
Still for that read-out and setting: the same measure for `Cc1cc2ccc(C(C)(C#N)Cc3ccc(Cl)s3)cc2[nH]c1=O` (centres unmarked) [Compound 72]: 0.1 µM.
As to `Cc1cc2ccc(C(C)(C#N)Cc3ccc(C(F)(F)F)o3)cc2[nH]c1=O` (centres unmarked) [Compound 73], the minimal effective concentration was 0.316 µM.
As for `Cc1cc2ccc(C(C)(C#N)Cc3cccc4cccnc34)cc2[nH]c1=O` (centres unmarked) [Compound 74], the minimal effective concentration is 0.316 µM.
Same read-out and setting: the value for `Cc1cc2ccc(C(C)(C#N)Cc3nc4ccccc4s3)cc2[nH]c1=O` (centres unmarked) [Compound 75] was 0.1 µM.
On the same count and under the same terms, the same measure for `Cc1cc2ccc(C(C)(C#N)Cc3ccccc3)cc2[nH]c1=O` (centres unmarked) [Compound 76]: 0.316 µM.
On the same count and under the same terms, the value for `CCc1cc2ccc(C(C)(C#N)Cc3ccc(OC)c(C#N)c3)cc2[nH]c1=O` (centres unmarked) [Compound 77] was 0.316 µM.
In the case of `CCc1cc2ccc(C(C)(C#N)Cc3cc(C)ccc3C)cc2[nH]c1=O` (centres unmarked) [Compound 78], the minimal effective concentration was 0.1 µM.
Still for that read-out and setting: the value for `CCc1cc2ccc(C(C)(C#N)Cc3ccc(F)c(C)c3)cc2[nH]c1=O` (centres unmarked) [Compound 79] was 0.316 µM; that for `CCc1cc2ccc(C(C)(C#N)Cc3cc(Cl)ccc3OC)cc2[nH]c1=O` (centres unmarked) [Compound 80] was 0.1 µM.
`CCc1cc2ccc(C(C)(C#N)Cc3cccc(Br)c3C)cc2[nH]c1=O` (centres unmarked) [Compound 81]: the minimal effective concentration is 0.1 µM.
For `CCc1cc2ccc(C(C)(C#N)Cc3ccc(Cl)c(C(F)(F)F)c3)cc2[nH]c1=O` (centres unmarked) [Compound 82], the minimal effective concentration is 0.1 µM.
The same measure, in the same setting: the value for `CCc1cc2ccc(C(C)(C#N)Cc3ccc(C)c(F)c3F)cc2[nH]c1=O` (centres unmarked) [Compound 83] was 0.316 µM; that for `CCc1cc2ccc(C(C)(C#N)Cc3c(C)cccc3C)cc2[nH]c1=O` (centres unmarked) [Compound 84] was 0.316 µM; that for `CCc1cc2ccc(C(C)(C#N)Cc3nc4ccccc4o3)cc2[nH]c1=O` (centres unmarked) [Compound 85] was 0.316 µM.
As for `CCc1cc2ccc(C(C)(C#N)Cc3csc(C)n3)cc2[nH]c1=O` (centres unmarked) [Compound 86], the minimal effective concentration was 1 µM.
The same measure, in the same setting: the value for `CCc1cc2ccc(C(C)(C#N)Cc3ccc4nccnc4c3)cc2[nH]c1=O` (centres unmarked) [Compound 87] was 0.316 µM; that for `CCc1cc2ccc(C(C)(C#N)Cc3c(C)c(C)cc(C)c3C)cc2[nH]c1=O` (centres unmarked) [Compound 88] was 1 µM; that for `CCc1cc2ccc(C(C)(C#N)Cc3c(C)c(C)c(C)c(C)c3C)cc2[nH]c1=O` (centres unmarked) [Compound 89] was 3.16 µM.
The same measure, in the same setting: the value for `CCc1cc2ccc(C(C)(C#N)Cc3cc(Cl)cc4c3OCOC4)cc2[nH]c1=O` (centres unmarked) [Compound 90] was 0.316 µM; that for `CCc1cc2ccc(C(C)(C#N)Cc3cc4c(cc3Cl)OCO4)cc2[nH]c1=O` (centres unmarked) [Compound 91] was 0.1 µM; that for `CCc1cc2ccc(C(C)(C#N)Cc3nncn3C)cc2[nH]c1=O` (centres unmarked) [Compound 93] was 1 µM.
Same read-out and setting: the same measure for `CCc1cc2ccc(C(C)(C#N)Cc3cccc4nnn(C)c34)cc2[nH]c1=O` (centres unmarked) [Compound 94]: 3.16 µM; for `CCc1cc2ccc(C(C)(C#N)Cc3nn(C)c4ccccc34)cc2[nH]c1=O` (centres unmarked) [Compound 95]: 0.1 µM; for `CCc1cc2ccc(C(C)(C#N)Cc3cn4ccccc4n3)cc2[nH]c1=O` (centres unmarked) [Compound 96]: 1 µM.
As to `CCc1cc2ccc(C(C)(C#N)Cc3cccnc3)cc2[nH]c1=O` (centres unmarked) [Compound 97], the minimal effective concentration was 3.16 µM.
The same measure, in the same setting: the value for `CCc1cc2ccc(C(C)(C#N)Cc3ccncc3)cc2[nH]c1=O` (centres unmarked) [Compound 98] was over 10 µM; that for `CCc1cc2ccc(C(C)(C#N)Cc3cc(Cl)ccc3Cl)cc2[nH]c1=O` (centres unmarked) [Compound 99] was 0.1 µM; that for `CCc1cc2ccc(C(C)(C#N)Cc3ccccc3C#N)cc2[nH]c1=O` (centres unmarked) [Compound 101] was 0.316 µM.
For `CCc1cc2ccc(C(C)(C#N)Cc3ccccc3OC(F)(F)F)cc2[nH]c1=O` (centres unmarked) [Compound 102], the minimal effective concentration was 0.316 µM.
Consider `CCc1cc2ccc(C(C)(C#N)Cc3ccccc3C(F)(F)F)cc2[nH]c1=O` (centres unmarked) [Compound 103], for which the minimal effective concentration is 0.316 µM.
Same read-out and setting: the same measure for `Cc1cc2ccc(C(C)(C#N)Cc3cc4ccccc4[nH]3)cc2[nH]c1=O` (centres unmarked) [Compound 234]: 3 µM.
Consider `CCc1cc2ccc(C(C)(C#N)Cc3ccc(F)c(C#N)c3)cc2[nH]c1=O` (centres unmarked) [Compound 267], for which the minimal effective concentration is 0.1 µM.
Regarding `CCc1cc2ccc(C(C)(C#N)CCOc3ccccc3C#N)cc2[nH]c1=O` (centres unmarked) [Compound 276], the minimal effective concentration was 1 µM.
